According to US11427548B2 (Arvinas Operations, Inc., priority 2015, dated 2022):

Target: T1, Androgen Receptor (Homo sapiens, UniProt P10275)
T1 construct: endogenous in cells; host or cells: VCaP cells
T1 sequence (P10275 1-920): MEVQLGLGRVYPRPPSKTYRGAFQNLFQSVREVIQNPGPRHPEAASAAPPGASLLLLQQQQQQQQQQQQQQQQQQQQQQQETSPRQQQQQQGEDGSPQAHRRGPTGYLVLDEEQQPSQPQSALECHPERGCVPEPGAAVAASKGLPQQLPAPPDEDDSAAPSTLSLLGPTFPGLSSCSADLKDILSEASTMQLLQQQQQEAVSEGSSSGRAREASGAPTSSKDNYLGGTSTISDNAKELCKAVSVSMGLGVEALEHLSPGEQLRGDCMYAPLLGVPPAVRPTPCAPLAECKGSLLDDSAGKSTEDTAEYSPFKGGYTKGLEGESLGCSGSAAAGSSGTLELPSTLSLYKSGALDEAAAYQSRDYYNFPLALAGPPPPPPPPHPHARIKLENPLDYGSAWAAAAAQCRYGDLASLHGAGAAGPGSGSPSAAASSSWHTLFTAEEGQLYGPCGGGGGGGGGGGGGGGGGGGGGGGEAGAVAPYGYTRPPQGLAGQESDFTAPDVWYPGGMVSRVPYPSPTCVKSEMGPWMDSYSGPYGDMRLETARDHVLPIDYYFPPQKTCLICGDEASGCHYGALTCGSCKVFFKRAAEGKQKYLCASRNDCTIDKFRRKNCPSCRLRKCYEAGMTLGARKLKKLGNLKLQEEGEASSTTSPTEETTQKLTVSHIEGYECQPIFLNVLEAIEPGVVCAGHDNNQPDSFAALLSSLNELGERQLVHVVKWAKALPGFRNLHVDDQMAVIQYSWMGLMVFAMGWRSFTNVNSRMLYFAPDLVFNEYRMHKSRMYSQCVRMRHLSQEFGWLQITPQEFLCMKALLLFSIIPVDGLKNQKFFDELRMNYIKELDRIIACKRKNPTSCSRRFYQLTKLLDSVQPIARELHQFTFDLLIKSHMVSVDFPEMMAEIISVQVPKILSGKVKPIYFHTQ
Assay: Androgen Receptor ELISA assay (PathScan AR ELISA) in VCaP cells: AR degradation, Dmax and DC50
Assay type: cell-based
Conditions: for DC50: read-out: VCaP DC50, concentration that caused 50% Androgen Receptor degradation, VCaP cells; for Dmax: VCaP, read-out: VCaP Dmax (%)
Experimental: 1. Androgen Receptor ELISA Assay.
The protocols used with VCaP cells are described below. The androgen receptor ELISA assay was performed using PathScan AR ELISA (Cell Signaling Catalog #12850) according to the following assay steps:
VCaP cells are seeded at 30,000 cells/well at a volume of 200 μL/well in VCaP assay medium [Phenol red free RPMI (Gibco Cat #11835-030); 5% Charcoal Stripped (Dextran treated) FBS (Omega Scientific, Cat #FB-04); Pen/Strep Life Technologies (Gibco Cat #: 10378-016); 0.1 nM R1881 (Sigma, Cat #R0908) is added upon the start of the assay, not during initial plating of the cells) in Corning 3904 plates. The cells are grown for a minimum of 3 days.
First, cells are dosed with compounds diluted in 0.1% DMSO—use a polypropylene plate according to the following protocol: (1)(i) make 1000× stock plate in DMSO; (ii) 20 mM stock diluted 1/6.7 with DMSO (5 μL+28.3 μL DMSO)=3 mM into row H; (iii) perform serial dilutions in ½ log doses (10 μL of PROTAC+20 μL DMSO) from row H towards row B. Reserve row A for DMSO; (iv) 7 doses total (final concentration in this 1000× plate will be 3 mM, 1 mM, 333 μM, 111 μM, etc). (2)(i) Make 10× stock plate in media; (ii) transfer 2.5 μL of the 1000× stock to a new 10× stock plate (use 12 channel pipet, start at A (DMSO control) work thru H. When 247.5 μL of media is added to this plate, it will serve as a 10× stock; (iii) make media+1 nM R1881 for making 10× stock plate; (iv) add 247.5 μL of media with 1 nM R1881 to each well of the 10× stock plate, mix.
Then 22 μL of 10× stock is added to cells and incubated for 24 h. 1× Cell Signaling Cell lysis buffer is made (Catalogue #9803; comes with the kit)—prepare for 50 μL/well. Keep on ice. Media is aspirated, and 50 μL 1× cell lysis buffer/well is added. The cells are placed on ice for 10 minutes. The solution is mixed and transferred to PCR plate, and centrifuged at 4C for 10 minutes at 4000 rpm.
5 μL is transferred to fresh plate (use immediately or freeze −80 C); 115 μL ELISA Dilutant is added (0.15 ug/ml-0.075 ug/ml; comes with the PathScan ELISA).
Add 100 μL/well AR Elisa; cover and shake, 37 C for 2 hrs; dump, tap, wash 4×200 μL ELISA wash buffer; add 100 μL/well mouse AR detection Ab; cover and shake, 37 C for 1 hr; dump, tap, wash 4×200 μL ELISA wash buffer; add 100 μL/well anti-mouse—HRP conjugated Ab (comes with the kit); cover and shake, 37 C for 30 min; allow TMB reagent to come to room temperature; dump, tap, wash 4×200 μL Elisa wash buffer; tap; add 100 μL TMB, shake 5 min—while watching color. Add the stop reagent when light blue color develops. Add 100 μL Stop solution; shake and read at 450 nm.

SMILES	DC50	Dmax
CC(C)(C)[C@H](NC(=O)COCCCOCCCCCOc1ccc(N2C(=S)N(c3ccc(C#N)c(C(F)(F)F)c3)C(=O)C2(C)C)cc1)C(=O)N1C[C@H](O)C[C@H]1C(=O)NCc1ccc(Cl)cc1 [Example 14, (2S,4R)-N-[(4-chlorophenyl)methyl]-1-[(2S)-2-[2-(3-{[5-(4-{3-[4-cyano-3-(trifluoromethyl)phenyl]-5,5-dimethyl-4-oxo-2-sulfanylideneimidazolidin-1-yl}phenoxy)pentyl]oxy}propoxy)acetamido]-3,3-dimethylbutanoyl]-4-hydroxypyrrolidine-2-carboxamide]	> 501 nM	
CC(C)(C)[C@H](NC(=O)COCCCOCCCCCOc1ccc(N2C(=S)N(c3ccc(C#N)c(C(F)(F)F)c3)C(=O)C2(C)C)cc1)C(=O)N1C[C@H](O)C[C@H]1C(=O)NCc1ccc(C#N)cc1 [Example 15, (2S,4R)-1-[(2S)-2-[2-(3-{[5-(4-{3-[4-cyano-3-(trifluoromethyl)phenyl]-5,5-dimethyl-4-oxo-2-sulfanylideneimidazolidin-1-yl}phenoxy)pentyl]oxy}propoxy)acetamido]-3,3-dimethylbutanoyl]-N-[(4-cyanophenyl)methyl]-4-hydroxypyrrolidine-2-carboxamide]	< 50 nM	26 to 50%
Cc1ncsc1-c1ccc(CNC(=O)[C@@H]2C[C@@H](O)CN2C(=O)[C@@H](NC(=O)COCCOCCOCCOc2ccc(N3C(=S)N(c4ccc(C#N)c(C(F)(F)F)c4)C(=O)C3(C)C)cc2)C(C)(C)C)cc1 [Example 16, (2S,4R)-1-[(2S)-2-[2-(2-{2-[2-(4-{3-[4-cyano-3-(trifluoromethyl)phenyl]-5,5-dimethyl-4-oxo-2-sulfanylideneimidazolidin-1-yl}phenoxy)ethoxy]ethoxy}ethoxy)acetamido]-3,3-dimethylbutanoyl]-4-hydroxy-N-{[4-(4-methyl-1,3-thiazol-5-yl)phenyl]methyl}pyrrolidine-2-carboxamide]		26 to 50%
Cc1ncsc1-c1ccc(CNC(=O)[C@@H]2C[C@@H](O)CN2C(=O)[C@@H](NC(=O)COCCCCOCCCCOc2ccc(N3C(=S)N(c4ccc(C#N)c(C(F)(F)F)c4)C(=O)C3(C)C)cc2F)C(C)(C)C)cc1 [Example 26, (2S,4R)-1-[(2S)-2-(2-{4-[4-(4-{3-[4-cyano-3-(trifluoromethyl)phenyl]-5,5-dimethyl-4-oxo-2-sulfanylideneimidazolidin-1-yl}-2-fluorophenoxy)butoxy]butoxy}acetamido)-3,3-dimethylbutanoyl]-4-hydroxy-N-{[4-(4-methyl-1,3-thiazol-5-yl)phenyl]methyl}pyrrolidine-2-carboxamide]	< 50 nM	51 to 70%
CC(C)(C)[C@H](NC(=O)COCCCOCCCCOc1ccc(N2C(=S)N(c3ccc(C#N)c(C(F)(F)F)c3)C(=O)C2(C)C)cc1)C(=O)N1C[C@H](O)C[C@H]1C(=O)NCc1ccc(-c2cncs2)cc1 [Example 33, (2S,4R)-1-[(2S)-2-(2-{3-[4-(4-{3-[4-cyano-3-(trifluoromethyl)phenyl]-5,5-dimethyl-4-oxo-2-sulfanylideneimidazolidin-1-yl}phenoxy)butoxy]propoxy}acetamido)-3,3-dimethylbutanoyl]-4-hydroxy-N-{[4-(1,3-thiazol-5-yl)phenyl]methyl}pyrrolidine-2-carboxamide]	< 50 nM	51 to 70%
CC(C)(C)[C@H](NC(=O)COCCCOCCCCOc1ccc(N2C(=S)N(c3ccc(C#N)c(C(F)(F)F)c3)C(=O)C2(C)C)cc1)C(=O)N1C[C@H](O)C[C@H]1C(=O)NCc1ccc(-c2cnco2)cc1 [Example 34, (2S,4R)-1-[(2S)-2-(2-{3-[4-(4-{3-[4-cyano-3-(trifluoromethyl)phenyl]-5,5-dimethyl-4-oxo-2-sulfanylideneimidazolidin-1-yl}phenoxy)butoxy]propoxy}acetamido)-3,3-dimethylbutanoyl]-4-hydroxy-N-{[4-(l,3-oxazol-5-yl)phenyl]methyl}pyrrolidine-2-carboxamide]	< 50 nM	> 71%
